Experimental data taken from PubChem BioAssay (NCI).
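Five concentrations, 48 hours, 96-well plates. GI50 is the concentration that inhibits growth by half. Definition used: TGI = concentration required for complete inhibition of growth.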

Legend:
Experiment in all cases: inhibition of tumour cell growth, NCI panel, 48 h
HOP-92 NSCLC = tested on: HOP-92 NSCLC
HT29 colon = tested on: HT29 colon
TK-10 renal = tested on: TK-10 renal
OVCAR-3 ovarian = tested on: OVCAR-3 ovarian
M14 melanoma = tested on: M14 melanoma
HOP-62 NSCLC = tested on: HOP-62 NSCLC
NCI/ADR-RES ovarian = tested on: NCI/ADR-RES ovarian
OVCAR-8 ovarian = tested on: OVCAR-8 ovarian
K-562 leukemia = tested on: K-562 leukemia
HS 578T breast = tested on: HS 578T breast
SK-OV-3 ovarian = tested on: SK-OV-3 ovarian
UACC-62 melanoma = tested on: UACC-62 melanoma
SW-620 colon = tested on: SW-620 colon
PC-3 prostate = tested on: PC-3 prostate
MALME-3M melanoma = tested on: MALME-3M melanoma
MCF7 breast = tested on: MCF7 breast
T-47D breast = tested on: T-47D breast
HCT-116 colon = tested on: HCT-116 colon
KM12 colon = tested on: KM12 colon
SR leukemia = tested on: SR leukemia
SF-268 CNS = tested on: SF-268 CNS
NCI-H522 lung = tested on: NCI-H522 lung
SK-MEL-2 melanoma = tested on: SK-MEL-2 melanoma
786-0 renal = tested on: 786-0 renal
MDA-MB-231 breast = tested on: MDA-MB-231 breast
BT-549 breast = tested on: BT-549 breast
HL-60(TB) leukemia = tested on: HL-60(TB) leukemia
SK-MEL-28 melanoma = tested on: SK-MEL-28 melanoma
CCRF-CEM leukemia = tested on: CCRF-CEM leukemia
U251 CNS = tested on: U251 CNS
SNB-19 CNS = tested on: SNB-19 CNS
SNB-75 CNS = tested on: SNB-75 CNS
CAKI-1 renal = tested on: CAKI-1 renal
UO-31 renal = tested on: UO-31 renal
A549 NSCLC = tested on: A549 NSCLC
HCT-15 colon = tested on: HCT-15 colon
NCI-H23 lung = tested on: NCI-H23 lung
RXF 393 renal = tested on: RXF 393 renal
UACC-257 melanoma = tested on: UACC-257 melanoma
MOLT-4 leukemia = tested on: MOLT-4 leukemia
SF-295 CNS = tested on: SF-295 CNS
COLO 205 colon = tested on: COLO 205 colon
SK-MEL-5 melanoma = tested on: SK-MEL-5 melanoma
SN12C renal = tested on: SN12C renal
LOX IMVI melanoma = tested on: LOX IMVI melanoma
OVCAR-4 ovarian = tested on: OVCAR-4 ovarian
MDA-MB-435 = tested on: MDA-MB-435
IGROV1 ovarian = tested on: IGROV1 ovarian
HCC-2998 colon = tested on: HCC-2998 colon
SF-539 CNS = tested on: SF-539 CNS
DU-145 prostate = tested on: DU-145 prostate
NCI-H226 lung = tested on: NCI-H226 lung
OVCAR-5 ovarian = tested on: OVCAR-5 ovarian
NCI-H460 lung = tested on: NCI-H460 lung
A498 renal = tested on: A498 renal
ACHN renal = tested on: ACHN renal
RPMI-8226 leukemia = tested on: RPMI-8226 leukemia
EKVX NSCLC = tested on: EKVX NSCLC

## CC(C)(C)c1ccc(NC(=O)c2cc(=O)c3ccccc3[nH]2)c(C(C)(C)C)c1O
HOP-92 NSCLC
  GI50: 2880 nM
  TGI: 12.8 µM
HT29 colon
  GI50: 2.21 µM
  TGI: 4.78 µM
TK-10 renal
  GI50: 14.5 µM
  TGI: 27.9 µM
OVCAR-3 ovarian
  GI50: 4.84 µM
  TGI: 15.9 µM
M14 melanoma
  GI50: 3810 nM
  TGI: 13.9 µM
HOP-62 NSCLC
  GI50: 12.5 µM
  TGI: 25.3 µM
NCI/ADR-RES ovarian
  GI50: 9.11 µM
  TGI: 24.4 µM
OVCAR-8 ovarian
  GI50: 3.28 µM
  TGI: 12.2 µM
K-562 leukemia
  GI50: 4.37 µM
  TGI: 16.7 µM
HS 578T breast
  GI50: 6.46 µM
  TGI: 39 µM
SK-OV-3 ovarian
  GI50: 13.8 µM
  TGI: 26.8 µM
UACC-62 melanoma
  GI50: 9.65 µM
  TGI: 22.9 µM
SW-620 colon
  GI50: 8.24 µM
  TGI: 27.1 µM
PC-3 prostate
  GI50: 2600 nM
  TGI: 8.29 µM
MALME-3M melanoma
  GI50: 12.1 µM
  TGI: 26.3 µM
MCF7 breast
  GI50: 3.35 µM
  TGI: 12.9 µM
T-47D breast
  GI50: 7.49 µM
  TGI: 21.9 µM
HCT-116 colon
  GI50: 3710 nM
  TGI: 13.4 µM
KM12 colon
  GI50: 3.13 µM
  TGI: 8.53 µM
SR leukemia
  GI50: 2130 nM
  TGI: 4.69 µM
SF-268 CNS
  GI50: 7.48 µM
  TGI: 22.4 µM
NCI-H522 lung
  GI50: 8.04 µM
  TGI: 20.8 µM
SK-MEL-2 melanoma
  GI50: 12.6 µM
  TGI: 26.4 µM
786-0 renal
  GI50: 3050 nM
  TGI: 12.1 µM
MDA-MB-231 breast
  GI50: 3.29 µM
  TGI: 13.9 µM
BT-549 breast
  GI50: 6.77 µM
  TGI: 19.9 µM
HL-60(TB) leukemia
  GI50: 4270 nM
  TGI: 17.2 µM
SK-MEL-28 melanoma
  GI50: 12.8 µM
  TGI: 26 µM
CCRF-CEM leukemia
  GI50: 2330 nM
  TGI: 8.25 µM
U251 CNS
  GI50: 3.59 µM
  TGI: 12.9 µM
SNB-19 CNS
  GI50: 13.7 µM
  TGI: 30 µM
SNB-75 CNS
  GI50: 7.4 µM
  TGI: 21.8 µM
CAKI-1 renal
  GI50: 5.74 µM
  TGI: 19.2 µM
UO-31 renal
  GI50: 5150 nM
  TGI: 17.5 µM
A549 NSCLC
  GI50: 3.23 µM
  TGI: 12.6 µM
HCT-15 colon
  GI50: 4320 nM
  TGI: 15.5 µM
NCI-H23 lung
  GI50: 3330 nM
  TGI: 14.1 µM
RXF 393 renal
  GI50: 2.31 µM
  TGI: 5.16 µM
UACC-257 melanoma
  GI50: 6.35 µM
  TGI: 21.3 µM
MOLT-4 leukemia
  GI50: 2670 nM
  TGI: 7.59 µM
SF-295 CNS
  GI50: 6.25 µM
  TGI: 20.2 µM
COLO 205 colon
  GI50: 3.8 µM
  TGI: 10.5 µM
SK-MEL-5 melanoma
  GI50: 6.51 µM
  TGI: 19 µM
SN12C renal
  GI50: 9.81 µM
  TGI: 24.4 µM
LOX IMVI melanoma
  GI50: 3220 nM
  TGI: 13.1 µM
OVCAR-4 ovarian
  GI50: 4.18 µM
  TGI: 15.7 µM
MDA-MB-435
  GI50: 4.92 µM
  TGI: 17.7 µM
IGROV1 ovarian
  GI50: 10.4 µM
  TGI: 22.7 µM
HCC-2998 colon
  GI50: 3.04 µM
  TGI: 10.4 µM
SF-539 CNS
  GI50: 13 µM
  TGI: 26.3 µM
DU-145 prostate
  GI50: 10.7 µM
  TGI: 23.5 µM
NCI-H226 lung
  GI50: 13.6 µM
  TGI: 28.9 µM
OVCAR-5 ovarian
  GI50: 6.26 µM
  TGI: 18.7 µM
NCI-H460 lung
  GI50: 3.72 µM
  TGI: 13.9 µM
A498 renal
  GI50: 4.33 µM
  TGI: 19.7 µM
ACHN renal
  GI50: 4130 nM
  TGI: 12.8 µM
RPMI-8226 leukemia
  GI50: 2890 nM
  TGI: 14.1 µM

## CCCCCCCCOC(=O)c1cc(O)c(O)c(O)c1
HOP-92 NSCLC
  GI50: 686 nM
  TGI: 15.6 µM
HT29 colon
  GI50: 14.8 µM
  TGI: 47.6 µM
TK-10 renal
  GI50: 3.77 µM
  TGI: > 62.6 µM
OVCAR-3 ovarian
  GI50: 2.03 µM
  TGI: 14.9 µM
M14 melanoma
  GI50: 2150 nM
  TGI: 9.19 µM
HOP-62 NSCLC
  GI50: 4.77 µM
  TGI: 20 µM
NCI/ADR-RES ovarian
  GI50: 1.52 µM
  TGI: 10.2 µM
OVCAR-8 ovarian
  GI50: 3.14 µM
  TGI: 37.5 µM
K-562 leukemia
  GI50: 2.05 µM
  TGI: > 38.8 µM
HS 578T breast
  GI50: 2.4 µM
  TGI: 22.2 µM
SK-OV-3 ovarian
  GI50: 7.28 µM
  TGI: 28 µM
UACC-62 melanoma
  GI50: 3.27 µM
  TGI: 15.3 µM
SW-620 colon
  GI50: 2.87 µM
  TGI: 19.4 µM
PC-3 prostate
  GI50: 2020 nM
  TGI: 20.5 µM
MALME-3M melanoma
  GI50: 1.74 µM
  TGI: 9.25 µM
MCF7 breast
  GI50: 4.14 µM
  TGI: 26.7 µM
T-47D breast
  GI50: 2.61 µM
  TGI: 21.8 µM
HCT-116 colon
  GI50: 1970 nM
  TGI: 12.9 µM
KM12 colon
  GI50: 2.9 µM
  TGI: 17.4 µM
SR leukemia
  GI50: 352 nM
  TGI: 10.3 µM
SF-268 CNS
  GI50: 1.49 µM
  TGI: 12.1 µM
SK-MEL-2 melanoma
  GI50: 4.72 µM
  TGI: 18.2 µM
786-0 renal
  GI50: 2460 nM
  TGI: 11.9 µM
MDA-MB-231 breast
  GI50: 12.1 µM
  TGI: 63.1 µM
BT-549 breast
  GI50: 2.08 µM
  TGI: 14.2 µM
HL-60(TB) leukemia
  GI50: 486 nM
  TGI: 5.02 µM
SK-MEL-28 melanoma
  GI50: 7.19 µM
  TGI: 29.6 µM
CCRF-CEM leukemia
  GI50: 314 nM
  TGI: > 42.8 µM
U251 CNS
  GI50: 3.02 µM
  TGI: 28.6 µM
SNB-19 CNS
  GI50: 5.27 µM
  TGI: > 58.9 µM
EKVX NSCLC
  GI50: 4.65 µM
  TGI: 22.4 µM
SNB-75 CNS
  GI50: 2.71 µM
  TGI: 37.6 µM
CAKI-1 renal
  GI50: 0.644 µM
  TGI: 3.52 µM
UO-31 renal
  GI50: 279 nM
  TGI: 2.9 µM
A549 NSCLC
  GI50: 12.7 µM
  TGI: 49 µM
HCT-15 colon
  GI50: 1570 nM
  TGI: 18.3 µM
NCI-H23 lung
  GI50: 2630 nM
  TGI: 11.5 µM
RXF 393 renal
  GI50: 5.45 µM
  TGI: 22 µM
UACC-257 melanoma
  GI50: 6.4 µM
  TGI: 45.4 µM
MOLT-4 leukemia
  GI50: 437 nM
  TGI: 16.5 µM
SF-295 CNS
  GI50: 2.23 µM
  TGI: 8.47 µM
COLO 205 colon
  GI50: 9.36 µM
  TGI: 24.8 µM
SK-MEL-5 melanoma
  GI50: 3.26 µM
  TGI: 11.6 µM
SN12C renal
  GI50: 3.21 µM
  TGI: 31.7 µM
LOX IMVI melanoma
  GI50: 1330 nM
  TGI: 10.6 µM
OVCAR-4 ovarian
  GI50: 2.63 µM
  TGI: > 100 µM
MDA-MB-435
  GI50: 1.53 µM
  TGI: 16.5 µM
IGROV1 ovarian
  GI50: 0.913 µM
  TGI: 4.88 µM
HCC-2998 colon
  GI50: 6 µM
  TGI: 18.6 µM
SF-539 CNS
  GI50: 2.52 µM
  TGI: 18.2 µM
DU-145 prostate
  GI50: 2.84 µM
  TGI: 14 µM
NCI-H226 lung
  GI50: 8.51 µM
  TGI: 29 µM
OVCAR-5 ovarian
  GI50: 12.5 µM
  TGI: 52.9 µM
NCI-H460 lung
  GI50: 2.73 µM
  TGI: 10.9 µM
A498 renal
  GI50: 8.26 µM
  TGI: 24.7 µM
ACHN renal
  GI50: 1600 nM
  TGI: 13.8 µM
RPMI-8226 leukemia
  GI50: 511 nM
  TGI: > 100 µM
